The structures appear in SMILES notation.

What is called IC50 is the concentration that inhibits the measured activity by half. Read a low IC50 as greater potency. The term Ki denotes a measure of affinity in units of concentration, obtained from inhibition or displacement. A low value points to higher affinity.

The target in one test is T1, Xanthine dehydrogenase/oxidase (Homo sapiens, UniProt P47989). The experiment in a line: Inhibitory activity against Xanthine Oxidase.
T1 sequence (P47989 whole entry): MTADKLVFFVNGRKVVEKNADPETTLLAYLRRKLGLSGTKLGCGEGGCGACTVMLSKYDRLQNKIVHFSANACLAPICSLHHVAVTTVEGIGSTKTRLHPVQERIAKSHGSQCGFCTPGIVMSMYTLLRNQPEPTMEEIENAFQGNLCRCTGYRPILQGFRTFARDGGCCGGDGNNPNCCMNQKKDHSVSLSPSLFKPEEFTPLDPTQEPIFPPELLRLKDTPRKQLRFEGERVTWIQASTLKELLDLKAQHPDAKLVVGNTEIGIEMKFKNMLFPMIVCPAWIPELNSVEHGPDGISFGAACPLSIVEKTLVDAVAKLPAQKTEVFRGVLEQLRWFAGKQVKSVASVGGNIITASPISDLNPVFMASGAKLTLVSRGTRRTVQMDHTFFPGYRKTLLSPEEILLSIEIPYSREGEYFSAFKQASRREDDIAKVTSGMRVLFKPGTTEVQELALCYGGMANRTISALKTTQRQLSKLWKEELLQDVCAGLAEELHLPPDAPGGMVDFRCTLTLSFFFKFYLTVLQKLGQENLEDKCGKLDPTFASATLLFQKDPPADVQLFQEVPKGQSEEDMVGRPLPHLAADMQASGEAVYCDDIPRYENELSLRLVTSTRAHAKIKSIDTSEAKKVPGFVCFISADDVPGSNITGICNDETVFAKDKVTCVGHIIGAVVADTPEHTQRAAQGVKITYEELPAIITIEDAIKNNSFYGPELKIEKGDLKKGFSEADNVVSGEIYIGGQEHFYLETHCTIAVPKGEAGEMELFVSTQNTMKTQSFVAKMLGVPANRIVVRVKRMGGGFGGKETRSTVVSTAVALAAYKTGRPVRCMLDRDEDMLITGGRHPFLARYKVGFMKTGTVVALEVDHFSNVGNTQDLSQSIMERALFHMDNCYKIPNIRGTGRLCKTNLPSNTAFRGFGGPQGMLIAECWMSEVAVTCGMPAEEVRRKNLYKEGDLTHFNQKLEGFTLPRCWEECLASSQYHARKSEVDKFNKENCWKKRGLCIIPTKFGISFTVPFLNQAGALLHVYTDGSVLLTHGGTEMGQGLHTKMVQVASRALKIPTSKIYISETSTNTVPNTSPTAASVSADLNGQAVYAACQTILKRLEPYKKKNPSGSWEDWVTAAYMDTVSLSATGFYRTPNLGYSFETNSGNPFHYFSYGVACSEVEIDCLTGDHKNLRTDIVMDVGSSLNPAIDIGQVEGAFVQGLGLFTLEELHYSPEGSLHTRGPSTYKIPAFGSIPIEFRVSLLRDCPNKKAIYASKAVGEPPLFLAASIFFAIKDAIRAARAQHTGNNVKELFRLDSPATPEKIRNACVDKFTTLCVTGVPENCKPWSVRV
Compound `CCCCNc1nc(O)c2[nH]cnc2n1` showed an IC50 of 25.5 µM and a Ki of 17.7 µM. `Oc1nc2nc(O)n3c(c-2n1)SCC3`: the inhibition constant Ki came out at 1.26 µM.

For the compound `O=c1[nH]c2nc(SCc3ccccc3)[nH]c(=O)c2[nH]1`, the Ki stood at 4.49 µM. Compound `CCCCSc1nc(N)c(NC=O)c(=O)[nH]1` registered a concentration for half-maximal inhibition (IC50) of more than 100 µM.

The compound `O=c1[nH]c2nc(S(=O)(=O)Cc3ccccc3)[nH]c(=O)c2[nH]1` came in with a Ki of 77.8 µM.

Turning to `Oc1nc2nc3n(c(O)c-2n1)CCS3`, the Ki is 40.3 µM. Same read-out and setting: the same measure for `CC1CSc2nc3nc(O)nc-3c(O)n2C1` (stereo not drawn): more than 100 µM. The same measure, in the same setting: the result for `O=c1[nH]c(=S)[nH]c2nc(-c3ccccc3)[nH]c12` reads 2.07 µM.

As for `Oc1nc2nnnc-2c2n1CCCS2`, the Ki is more than 100 µM. In turn, `CCCc1nc2n[nH]cc2c(=O)[nH]1` had a half-maximal inhibitory concentration (IC50) of more than 100 µM. In turn, `CCCCCCNc1nc(O)c2[nH]cnc2n1` gave an IC50 of 30.5 µM and a Ki of 32.1 µM. In turn, `Oc1c2nc(S)nc-2nc2n1CCS2` yielded a Ki of 24.4 µM. Consider `CCCCCCSc1nc(O)c2[nH]c(O)nc2n1`, for which the affinity, expressed as Ki, was 0.16 µM. Same read-out and setting: the result for `CCCCCCSc1nc2nc(-c3ccccc3)[nH]c2c(=O)[nH]1` reads 0.48 µM. `CCCCCc1nc2n[nH]cc2c(=O)[nH]1` registered an IC50 of more than 100 µM.

In the case of `Oc1nc2nc(-c3ccccc3)nc-2c2n1CCCS2`, the Ki stood at 93 µM. In turn, `CSc1nc2nc(-c3ccccc3)[nH]c2c(=O)[nH]1` gave an inhibition constant Ki of 5.7 µM. This Ki is about 16-fold lower than that of the compound before. Same read-out and setting: the result for `Oc1nc2nc3n(c(O)c-2n1)CCCS3` reads 66.8 µM. Compound `CCCCCSc1nc(N)c(NC=O)c(=O)[nH]1` showed an IC50 of more than 100 µM. In the case of `CCCCCOC(=O)C(=O)Nc1[nH]cnc1C(N)=O`, the IC50 worked out at 1.92 µM and affinity was put at a Ki of 1.04 µM. Compound `CCCCCNc1nc2nc[nH]c2c(=O)[nH]1` registered a concentration for half-maximal inhibition (IC50) of 28.3 µM and an inhibitory constant (Ki) of 25.7 µM.

Compound `CCCCSc1nc2nc[nH]c2c(=O)[nH]1` displayed an IC50 of 3.88 µM and a Ki of 0.176 µM. Compound `CCc1nc(O)c2c[nH]nc2n1` had an IC50 of more than 100 µM. The compound `CCCCOC(=O)C(=O)Nc1nc[nH]c1C(N)=O` registered an IC50 of 4.29 µM and an inhibitory constant (Ki) of 1.06 µM.

With `Oc1c2nc(S)nc-2nc2n1CCCS2`, the Ki was 131 µM. As to `CCCCc1nc(O)c2c[nH]nc2n1`, the half-inhibitory concentration (IC50) was more than 100 µM. The same measure, in the same setting: the result for `CCCC(=O)Nc1nc2nc[nH]c2c(=O)[nH]1` reads more than 100 µM.

In turn, `CC1CSc2nc3nc(S)nc-3c(O)n2C1` (stereo not drawn) returned an inhibitory constant (Ki) of more than 100 µM. The same measure, in the same setting: the result for `O=c1nc2[nH]c(=S)[nH]c2c2n1CCS2` reads 1.86 µM. `CCCCCCOC(=O)C(=O)Nc1nc[nH]c1C(N)=O` returned an IC50 of 1.11 µM and an inhibition constant (Ki) of 0.26 µM. Compound `CCCCCCSc1nc(N)c(NC=O)c(=O)[nH]1` showed a half-inhibitory concentration (IC50) of more than 100 µM.

Compound `CCCCCC(=O)Nc1nc[nH]c1C(N)=O` gave an IC50 of 12.6 µM and an inhibition constant Ki of 2.56 µM. For the compound `Oc1nc2nc(O)n3c(c-2n1)SCCC3`, the affinity corresponds to a Ki of 0.33 µM.

For a further test, the target named is T1, Xanthine dehydrogenase/oxidase. The experiment in a line: Inhibitory activity against Xanthine Oxidase; Inactive.
Regarding `CCCCCCSc1nc(N)cc(O)n1`, the concentration for half-maximal inhibition (IC50) result was “Not Active”. Still for that read-out and setting: the result for `CCCCCSc1nc(N)cc(O)n1` reads “Not Active”. For `CCCCSc1nc(N)cc(O)n1`, the IC50 entry is listed as “Not Active”. The same measure, in the same setting: the same measure for `CCCCC(=O)Nc1nc(O)c2[nH]cnc2n1`: “Not Active”; for `CCCCCC(=O)Nc1nc(O)c2[nH]cnc2n1`: “Not Active”.

Turning to `O=S1(=O)CCCn2c1nc1nc(O)nc-1c2O`, the Ki result was “Not Active”.

The next test deals with Xanthine dehydrogenase/oxidase (Bos taurus) (UniProt P80457). Kind of test: Inhibitory activity against Xanthine Oxidase.
Chain of Xanthine dehydrogenase/oxidase (Bos taurus) (P80457 whole entry, looked up): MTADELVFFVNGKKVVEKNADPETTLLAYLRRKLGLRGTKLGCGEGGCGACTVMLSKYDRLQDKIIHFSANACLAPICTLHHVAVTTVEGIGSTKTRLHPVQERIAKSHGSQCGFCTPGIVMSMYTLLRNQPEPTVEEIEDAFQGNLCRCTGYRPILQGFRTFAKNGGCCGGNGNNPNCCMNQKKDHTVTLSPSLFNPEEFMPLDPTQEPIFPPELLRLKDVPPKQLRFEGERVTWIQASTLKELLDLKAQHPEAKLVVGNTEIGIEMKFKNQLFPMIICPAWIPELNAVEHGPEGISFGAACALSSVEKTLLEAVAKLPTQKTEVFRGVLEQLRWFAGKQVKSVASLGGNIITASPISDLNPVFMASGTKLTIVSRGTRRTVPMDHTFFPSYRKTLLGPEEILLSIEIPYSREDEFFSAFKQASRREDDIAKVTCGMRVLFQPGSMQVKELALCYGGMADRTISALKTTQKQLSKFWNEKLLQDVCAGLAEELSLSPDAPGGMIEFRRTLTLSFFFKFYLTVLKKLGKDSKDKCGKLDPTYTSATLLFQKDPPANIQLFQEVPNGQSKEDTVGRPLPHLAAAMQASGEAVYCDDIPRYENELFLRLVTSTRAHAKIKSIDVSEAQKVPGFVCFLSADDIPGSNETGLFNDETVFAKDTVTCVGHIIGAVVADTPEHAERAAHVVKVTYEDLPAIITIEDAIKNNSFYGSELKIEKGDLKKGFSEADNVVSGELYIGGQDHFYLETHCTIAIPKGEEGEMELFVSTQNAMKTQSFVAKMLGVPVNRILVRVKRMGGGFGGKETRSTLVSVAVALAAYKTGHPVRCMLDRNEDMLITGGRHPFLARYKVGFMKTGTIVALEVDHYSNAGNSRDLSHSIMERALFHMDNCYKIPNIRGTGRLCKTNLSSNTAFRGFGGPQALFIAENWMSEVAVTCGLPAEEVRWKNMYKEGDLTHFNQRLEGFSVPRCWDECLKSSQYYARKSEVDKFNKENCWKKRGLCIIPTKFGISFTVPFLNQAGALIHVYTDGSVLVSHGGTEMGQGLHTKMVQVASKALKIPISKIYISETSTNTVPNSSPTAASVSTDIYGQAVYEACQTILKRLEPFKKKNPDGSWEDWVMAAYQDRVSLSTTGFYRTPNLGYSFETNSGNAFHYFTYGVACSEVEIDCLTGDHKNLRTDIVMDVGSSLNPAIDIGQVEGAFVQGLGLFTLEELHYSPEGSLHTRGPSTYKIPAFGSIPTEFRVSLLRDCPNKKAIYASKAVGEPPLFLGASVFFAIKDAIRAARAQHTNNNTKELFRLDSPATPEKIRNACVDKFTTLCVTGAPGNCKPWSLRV
Consider `Oc1nc2nc(S)nc-2c2n1CCCS2`, for which affinity was put at a Ki of 0.89 µM.

These data come from ChEMBL document CHEMBL1129352, “Synthesis and biological evaluation of new imidazole, pyrimidine, and purine derivatives and analogs as inhibitors of xanthine oxidase” (J Med Chem, 1996).
